Results as given in patent US10800772B2 (Gilead Sciences, Inc., priority 2016, dated 2020).
Where two headings read alike, the source gives them in different places.

Columns and labels:
[1] = Hum MS stability (human microsomal stability half-life); conditions: human microsomes
HIV-IIIb IN T174I BT = assay: Antiviral assay in MT4 cells, HIV-IIIb IN T174I BT virus (from viral breakthrough); assay type: cell-based, HIV-1; conditions: Human immunodeficiency virus 1, IIIB, MT4, 120 h, read-out: T174I BT EC50, MT4 cells, HIV-IIIb IN T174I BT (viral breakthrough), 5 days, CellTiter-Glo
In short: (§1)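 Luminescence from CellTiter-Glo after a 5-day culture served as the measure of HIV-1 replication in MT4 cells. Cells were infected beforehand for 3 h with HIV-IIIb (0.004 m.o.i.) and exposed to ten 3-fold compound dilutions. EC50 corresponds to a 50% signal decrease.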

HIV-IIIb (wildtype) = assay: Antiviral assay in MT4 cells, HIV-IIIb wildtype; assay type: cell-based, HIV-1; conditions: read-out: WT EC50
In short: as §1

HIV-IIIb IN T174I DE = assay: Antiviral assay in MT4 cells, HIV-IIIb IN T174I DE virus (from dose escalation passaging); assay type: cell-based, HIV-1; conditions: Human immunodeficiency virus 1, IIIB, MT4, 120 h, read-out: T174I DE EC50, MT4 cells, HIV-IIIb IN T174I DE (dose escalation), 5 days, CellTiter-Glo
In short: as §1

[2] = Human immunodeficiency virus 1, IIIB, MT4, 120 h

Row | SMILES | half-life [1] [h] | EC50 (HIV-IIIb IN T174I BT) [nM] | EC50 (HIV-IIIb (wildtype); [2]) [nM] | EC50 (HIV-IIIb IN T174I DE) [nM] | EC50 (HIV-IIIb (wildtype); Human immunodeficiency virus 1, 120 h, MT4 cells, HIV-IIIb wildtype, 5 days, CellTiter-Glo) [nM]
1 | Cc1cc2nc(-c3ccc4c(c3)c(C3CCOCC3)nn4C)sc2c(-c2ccc(Cl)cc2)c1[C@H](OC(C)(C)C)C(=O)O [Compound 19, (S)-2-(tert-butoxy)-2-(7-(4-chlorophenyl)-5-methyl-2-(1-methyl-3-(tetrahydro-2H-pyran-4-yl)-1H-indazol-5-yl)benzo[d]thiazol-6-yl)acetic Acid] | 4.15 | 1170 | 12 | 2780 | 
2 | [2H]C([2H])([2H])C(O[C@H](C(=O)O)c1c(C)cc2nc(-c3ccc4c(c3)c(C3CCN(C5COC5)CC3)nn4C)sc2c1-c1ccc(Cl)cc1)(C([2H])([2H])[2H])C([2H])([2H])[2H] [Compound 21, (S)-2-(7-(4-chlorophenyl)-5-methyl-2-(1-methyl-3-(1-(oxetan-3-yl)piperidin-4-yl)-1H-indazol-5-yl)benzo[d]thiazol-6-yl)-2-((2-(methyl-d3)propan-2-yl-1,1,1,3,3,3-d6)oxy)acetic Acid] | 3.3 | 124 |  | 239 | 4
3 | Cc1cc2nc(-c3ccc4c(c3)c(C3CCN(S(C)(=O)=O)CC3)nn4C)sc2c(-c2ccc(Cl)cc2)c1[C@H](OC(C)(C)C)C(=O)O [Compound 25, (S)-2-(tert-butoxy)-2-(7-(4-chlorophenyl)-5-methyl-2-(1-methyl-3-(1-(methylsulfonyl)piperidin-4-yl)-1H-indazol-5-yl)benzo[d]thiazol-6-yl)acetic acid] | 4.25 | 404 | 10 | 806 | 
4 | Cc1cc2nc(-c3ccc4c(c3)c(C3CCOC3)nn4C)sc2c(-c2ccc(Cl)cc2)c1[C@H](OC(C)(C)C)C(=O)O (stereo partly drawn) [Compound 52, (2S)-2-(tert-butoxy)-2-(7-(4-chlorophenyl)-5-methyl-2-(1-methyl-3-(tetrahydrofuran-3-yl)-1H-indazol-5-yl)benzo[d]thiazol-6-yl)acetic acid] | 3.72 | 905 | 8 | 946 | 
5 | COCC(COC)N1CC(c2nn(C)c3ccc(-c4nc5cc(C)c([C@H](OC(C)(C)C)C(=O)O)c(-c6ccc(Cl)cc6)c5s4)cc23)C1 [Compound 61, (S)-2-(tert-butoxy)-2-(7-(4-chlorophenyl)-2-(3-(1-(1,3-dimethoxypropan-2-yl)azetidin-3-yl)-1-methyl-1H-indazol-5-yl)-5-methylbenzo[d]thiazol-6-yl)acetic acid] | 3.62 | 1610 | 7 | 2700 | 
6 | Cc1cc2nc(-c3ccc4c(c3)c(C3CCN(C5COC5)C3)nn4C)sc2c(-c2ccc(Cl)cc2)c1[C@H](OC(C)(C)C)C(=O)O (stereo partly drawn) [Compound 70, (2S)-2-(tert-butoxy)-2-(7-(4-chlorophenyl)-5-methyl-2-(1-methyl-3-(1-(oxetan-3-yl)pyrrolidin-3-yl)-1H-indazol-5-yl)benzo[d]thiazol-6-yl)acetic acid] | 5.87 | 587 | 7 | 942 | 
7 | COCCOC(=O)N1CCC(c2nn(C)c3ccc(-c4nc5cc(C)c([C@H](OC(C)(C)C)C(=O)O)c(-c6ccc(Cl)cc6)c5s4)cc23)C1 (stereo partly drawn) [Compound 73, (2S)-2-(tert-butoxy)-2-(7-(4-chlorophenyl)-2-(3-(1-((2-methoxyethoxy)carbonyl)pyrrolidin-3-yl)-1-methyl-1H-indazol-5-yl)-5-methylbenzo[d]thiazol-6-yl)acetic acid] | 3.05 | 720 | 6 | 823 | 
8 | CC(=O)N1CCC(c2nn(C)c3ccc(-c4nc5cc(C)c([C@H](OC(C)(C)C)C(=O)O)c(-c6ccc(Cl)cc6)c5s4)cc23)C1 (stereo partly drawn) [Compound 74, (2S)-2-(2-(3-(1-acetylpyrrolidin-3-yl)-1-methyl-1H-indazol-5-yl)-7-(4-chlorophenyl)-5-methylbenzo[d]thiazol-6-yl)-2-(tert-butoxy)acetic acid] | 3.32 | 349 | 10 | 587 | 
9 | COCCN1CCCC(c2nn(C)c3ccc(-c4nc5cc(C)c([C@H](OC(C)(C)C)C(=O)O)c(-c6ccc(Cl)cc6)c5s4)cc23)C1 (stereo partly drawn) [Compound 77, (2S)-2-(tert-butoxy)-2-(7-(4-chlorophenyl)-2-(3-(1-(2-methoxyethyl)piperidin-3-yl)-1-methyl-1H-indazol-5-yl)-5-methylbenzo[d]thiazol-6-yl)acetic acid] | 2.17 | 1810 | 9 | 3270 | 
10 | Cc1cc2nc(-c3ccc4c(c3)c(N3CCN(C)C3=O)nn4C)sc2c(-c2ccc(Cl)cc2)c1[C@H](OC(C)(C)C)C(=O)O [Compound 80, (S)-2-(tert-butoxy)-2-(7-(4-chlorophenyl)-5-methyl-2-(1-methyl-3-(3-methyl-2-oxoimidazolidin-1-yl)-1H-indazol-5-yl)benzo[d]thiazol-6-yl)acetic Acid] | 5.42 | 1510 | 13 | 2280 | 
11 | Cc1cc2nc(-c3ccc4c(c3)c(N3CC[C@@H](N(C)C)C3)nn4C)sc2c(-c2ccc(Cl)cc2)c1[C@H](OC(C)(C)C)C(=O)O [Compound 92, (S)-2-(tert-butoxy)-2-(7-(4-chlorophenyl)-2-(3-((R)-3-(dimethylamino)pyrrolidin-1-yl)-1-methyl-1H-indazol-5-yl)-5-methylbenzo[d]thiazol-6-yl)acetic acid] | 6.05 | 938 | 14 | 1940 | 
12 | COCCN1CCN(c2nn(C)c3ccc(-c4nc5cc(C)c([C@H](OC(C)(C)C)C(=O)O)c(-c6ccc(Cl)cc6)c5s4)cc23)CC1 [Compound 98, (S)-2-(tert-butoxy)-2-(7-(4-chlorophenyl)-2-(3-(4-(2-methoxyethyl)piperazin-1-yl)-1-methyl-1H-indazol-5-yl)-5-methylbenzo[d]thiazol-6-yl)acetic acid] | 3.17 | 290 | 4 | 516 | 
13 | CCOCCN1CCN(c2nn(C)c3ccc(-c4nc5cc(C)c([C@H](OC(C)(C)C)C(=O)O)c(-c6ccc(Cl)cc6)c5s4)cc23)CC1 [Compound 99, (S)-2-(tert-butoxy)-2-(7-(4-chlorophenyl)-2-(3-(4-(2-ethoxyethyl)piperazin-1-yl)-1-methyl-1H-indazol-5-yl)-5-methylbenzo[d]thiazol-6-yl)acetic Acid] | 4.33 | 485 | 6 | 759 | 
14 | Cc1cc2nc(-c3ccc4c(c3)c(N3CCN(CC5CC5)CC3)nn4C)sc2c(-c2ccc(Cl)cc2)c1[C@H](OC(C)(C)C)C(=O)O [Compound 100, (S)-2-(tert-butoxy)-2-(7-(4-chlorophenyl)-2-(3-(4-(cyclopropylmethyl)piperazin-1-yl)-1-methyl-1H-indazol-5-yl)-5-methylbenzo[d]thiazol-6-yl)acetic acid] | 3.23 | 1880 | 10 | 3590 | 
15 | Cc1cc2nc(-c3ccc4c(c3)c(N3CCN(C)CC3)nn4C)sc2c(-c2ccc(Cl)cc2)c1[C@H](OC1CC1)C(=O)O [Compound 103, (S)-2-(7-(4-chlorophenyl)-5-methyl-2-(1-methyl-3-(4-methylpiperazin-1-yl)-1H-indazol-5-yl)benzo[d]thiazol-6-yl)-2-cyclopropoxyacetic acid] | 2.47 | 267 | 32 | 367 | 
16 | Cc1cc2nc(-c3ccc4c(c3)c(N3CC(C)(C)N(C)C3=O)nn4C)sc2c(-c2ccc(Cl)cc2)c1[C@H](OC(C)(C)C)C(=O)O [Compound 122, (S)-2-(tert-butoxy)-2-(7-(4-chlorophenyl)-5-methyl-2-(1-methyl-3-(3,4,4-trimethyl-2-oxoimidazolidin-1-yl)-1H-indazol-5-yl)benzo[d]thiazol-6-yl)acetic acid] | 4.48 | 1440 | 14 | 3810 | 
17 | COCCN1C(=O)N(c2nn(C)c3ccc(-c4nc5cc(C)c([C@H](OC(C)(C)C)C(=O)O)c(-c6ccc(Cl)cc6)c5s4)cc23)CC1(C)C [Compound 123, (S)-2-(tert-butoxy)-2-(7-(4-chlorophenyl)-2-(3-(3-(2-methoxyethyl)-4,4-dimethyl-2-oxoimidazolidin-1-yl)-1-methyl-1H-indazol-5-yl)-5-methylbenzo[d]thiazol-6-yl)acetic acid] | 1.6 | 1450 | 11 | 7090 | 
18 | COCCN1CCC(c2nn(C)c3ccc(-c4nc5cc(C)c([C@H](OC(C)(C)C)C(=O)O)c(-c6ccc(Cl)cc6)c5s4)cc23)CC1 [Compound 125, (S)-2-(tert-butoxy)-2-(7-(4-chloro-phenyl)-2-(3-(1-(2-methoxyethyl)piperidin-4-yl)-1-methyl-1H-indazol-5-yl)-5-methylbenzo[d]thiazol-6-yl) acetic acid] | 4.38 | 400 | 8 | 715 | 
19 | COC1(C)CN(c2nn(C)c3ccc(-c4nc5cc(C)c([C@H](OC(C)(C)C)C(=O)O)c(-c6ccc(Cl)cc6)c5s4)cc23)C1 [Compound 131, (S)-2-(tert-butoxy)-2-(7-(4-chloro-phenyl)-2-(3-(3-methoxy-3-methylazetidin-1-yl)-1-methyl-1H-indazol-5-yl)-5-methylbenzo[d]thiazol-6-yl) acetic acid] | 4.15 | 7950 | 10 | 3740 | 
